Results published in publication PMC7035281 (Nature Communications, 2020).

What was measured:
LeuT (LeuTWT) [1] = target: T1, LeuT (LeuTWT) (Aquifex aeolicus, UniProt O67854, W8A); test: scintillation proximity saturation binding, purified protein in DDM; X-ray structure […] Å
T1 construct: gene snf; full length, C-terminal thrombin site and 8xHis tag (pET16b), E. coli C41(DE3), purified in DDM; crystal of W8A a dimer in the asymmetric unit, residues 13-511 and 13-507 visible; smFRET variant from pQO18-TEV vector, His-tagged

LeuT (LeuTWT) [2] = target: T2, LeuT (LeuTWT) (Aquifex aeolicus, UniProt O67854); test: scintillation proximity saturation binding, purified protein in DDM
T2 construct: gene snf; full length, C-terminal thrombin site and 8xHis tag (pET16b), E. coli C41(DE3), purified in DDM; crystal of W8A a dimer in the asymmetric unit, residues 13-511 and 13-507 visible; smFRET variant from pQO18-TEV vector, His-tagged

SMILES: N[C@@H](Cc1ccccc1)C(=O)O [L-Phe]
- Kd (LeuT (LeuTWT) [1]): 796 ± 139 nM
- Kd (LeuT (LeuTWT) [2]): 898 ± 1130 nM
